From the CATMoS acute toxicity set (Mansouri et al. 2021)
Where a SMILES comes first, the peptide text is derived from it. [ ]: non-standard residue; d: D form. pGlu = O=C1CC[C@@H](C(=O)O)N1; Thz = O=C(O)[C@@H]1CSCN1

Experiment: GHS categories as the set defines them, by LD50: 1 up to 5, 2 up to 50, 3 up to 300, 4 up to 2000, 5 above 2000 mg/kg
Conditions: rat; in vivo; po

Row | Structure (SMILES) | GHS category
1 | CCCCCCCCCCCCCCCCCCOCCC[N+](C)(C)C | 4
2 | CCCCCCCC(=O)OCCC | 5
3 | O=C1CC[C@@H](C(=O)N2CSC[C@H]2C(=O)O)N1 ([pGlu]-[Thz]-OH) | 5
4 | O=C(O)c1ccccc1Nc1ccc(O)c(C(F)(F)F)c1 | 5
5 | CCCCCCC1(C)CCC(=O)O1 (stereo not drawn) | 5
6 | COc1ccccc1N1CCN(/C(=N\CC(C)C)Nc2ccc(Cl)c(Cl)c2)CC1 | 4
7 | CCO[Si](CN(CC)CC)(OCC)OCC | 5
8 | CC1Oc2cc(C(=O)c3ccccc3)ccc2N(C)C1=O (stereo not drawn) | 5
9 | C=CC(=O)OCC(CC)(COCC(CC)(COC(=O)C=C)COC(=O)C=C)COC(=O)C=C | 5
10 | NC(=O)OCC(COC(N)=O)c1ccccc1 | 5
11 | CCC[C@H](N[C@@H](C)C(=O)N1[C@H](C(=O)O)C[C@@H]2CCCC[C@@H]21)C(=O)OCC | 5
12 | COc1cc(C#N)cc(OC)c1O | 5
13 | COC(=O)c1ccccc1CS(=O)(=O)NC(=O)Nc1nc(OC)cc(OC)n1 | 5
14 | C=C(C)C(=O)OCC(CC)CCCC (stereo not drawn) | 5
15 | CC(=O)OCC1=CC[C@@]23C[C@@H]1C(C)(C)[C@@H]2CC[C@H]3C | 5
16 | COC(=O)C(O)(c1cccs1)c1cccs1 | 5
17 | CCCCC(CC)C1NC(=O)N(SC(Cl)(Cl)Cl)C1=O (stereo not drawn) | 4
18 | CC1Oc2cc(C(=O)c3ccc(Cl)cc3)ccc2NC1=O (stereo not drawn) | 5
19 | CCCCOC(=O)c1ccc(-n2nc(OCCN(CC)CC)c3ccccc32)cc1 | 4
20 | CC(C)OC(=O)CCCCCCCCC(=O)OC(C)C | 5
21 | CN1C(=O)C(C)(C)Oc2cc(C(=O)C=Cc3ccc(O)cc3)ccc21 | 5
22 | N=C1C=CC2=CC(S(=O)(=O)O)=CC(=O)C2=C1NNc1ccc(-c2ccc(N=Nc3cc(S(=O)(=O)O)c4ccccc4c3N)cc2)cc1 | 5
23 | COc1ccc(-c2ccccc2)cc1NNC(=O)OC(C)C | 5

Row | Structure (SMILES) | GHS category
24 | OC(c1ccccc1)c1ccc(-c2ccccc2)cc1 (stereo not drawn) | 5
25 | N#Cc1cccc(C2=C3C(=O)NC(c4cccc(C#N)c4)=C3C(=O)N2)c1 | 5
26 | CN(C)C1C(=O)C(=C(O)NCN2CCCC2C(=O)O)C(=O)C2(O)C(=O)C3=C(O)c4c(O)cccc4C(C)(O)C3CC12 (stereo not drawn) | 5
27 | CSc1nc2cc(Cl)ccc2o1 | 5
28 | CCCCCC1C(=O)CCC1CC(=O)OC (stereo not drawn) | 5
29 | CCCCCOc1ccc(-c2ccc(C#N)cc2)cc1 | 5
30 | CCCCCCCC/C=C\CCCCCCCC(=O)OCC(COC(=O)CCCCCCC/C=C\CCCCCCCC)OC(=O)CCCCCCC/C=C\CCCCCCCC | 5
31 | O=c1nc2nc[nH]n2c(CO)c1Cc1ccc(-c2ccccc2-c2nn[nH]n2)cc1 | 4
32 | CCCCCCCCCC[C@H]1O[C@H]1CCCCC(C)C | 5
33 | CCC(C#N)(CCN(CC=C(C)C)CC=C(C)C)c1cccc2ccccc12 (stereo not drawn) | 4
34 | CCCc1c(Cc2ccc(-c3ccccc3-c3nn[nH]n3)cc2)c(=O)nc2nc(N(CC)CC)[nH]n12 | 4
35 | COc1ccccc1N=Nc1c(O)ccc2ccccc12 | 5
36 | Cn1c(=O)c2c(ncn2CC(=O)N2CCOCC2)n(C)c1=O | 5
37 | COc1cc(C(=O)OCCCNCCC(c2ccccc2)c2ccccc2)cc(OC)c1OC | 5
38 | COc1cc([N+](=O)[O-])ccc1N=NC(C(C)=O)C(=O)Nc1cc(Cl)ccc1OC (stereo not drawn) | 5
39 | COc1ccccc1N1CCN(/C(=N\CCCO)Nc2ccccc2)CC1 | 4
40 | NCCNS(=O)(=O)c1cccc2cnccc12 | 4
41 | CO/N=C(/C(=O)N[C@@H]1C(=O)N2C(C(=O)O)=C(CSc3cnns3)CS[C@H]12)c1csc(N)n1 | 5
42 | CC(C)OC(=O)c1cc(C(=O)OC(C)C)cc([N+](=O)[O-])c1 | 5
43 | CCN(Cc1cccc(S(=O)(=O)O)c1)c1ccc(C(=C2C=CC(=[N+](CC)Cc3cccc(S(=O)(=O)O)c3)C=C2)c2ccc(O)cc2S(=O)(=O)[O-])cc1 | 5
44 | O=P(O)(O)CN(CP(=O)(O)O)CP(=O)(O)O | 5
45 | CC(=O)OCC(C)=CCCC1(C)C2CC3C(C2)C31C (stereo not drawn) | 5
46 | Cc1ncc(CSSCc2cnc(C)c(O)c2CO)c(CO)c1O | 5

Row | Structure (SMILES) | GHS category
47 | CCCCCCCCC(C)C(C)CCCCCCCC (stereo not drawn) | 5
48 | Cc1cc(C)c(O)c(-c2cc(C)cc(C)c2O)c1 | 5
49 | CCCCn1c(C)c(C(=O)NC2CCN(CCc3ccccc3)CC2)c2cc(O)ccc21 | 5
50 | O=C1COc2cc(C(=O)c3ccc(Cl)cc3)ccc2N1 | 5
51 | O=C(O)c1ccccc1N1C(=O)C(Cl)C1c1ccccc1 (stereo not drawn) | 4
52 | CCOC(=O)c1cnn(-c2cccc(C)c2)c1S(C)(=O)=O | 4
53 | CCOC(=O)c1cn(C2CC2)c2cc(F)c(F)cc2c1=O | 5
54 | CCOC(C)C(C=NNC(N)=S)=NNC(N)=S (stereo not drawn) | 5
55 | CCCCCCCCCC(C)C=O (stereo not drawn) | 5
56 | O=C(O)c1cc(O)ccc1Nc1ccc(O)c(C(F)(F)F)c1 | 4
57 | COC1=CC(=O)C[C@@H](C)[C@]12Oc1c(Cl)c(OC)cc(OC)c1C2=O | 5
58 | Cc1cc(=O)nc(C(C)(C)O)[nH]1 | 5
59 | COc1cc2nc(N3CCN(C(=O)CC(C)O)CC3)nc(N)c2cc1OC (stereo not drawn) | 5
60 | Cc1c(Cl)c(=O)oc2cc(OP(=O)(OCCCCCl)OCCCCCl)ccc12 | 3
61 | CCCCCCC(=O)OC1CCC2C3CCC4=CC(=O)CCC4(C)C3CCC12C (stereo not drawn) | 4
62 | Cn1c(CCCC(=O)O)nc2cc(N(CCCl)CCCl)ccc21 | 3
63 | OCCCCSc1ccc(Cl)cc1 | 4
64 | C[Si](C)(C)C | 5
65 | CC(CCC(=O)NCCS(=O)(=O)O)C1CCC2C3C(O)CC4CC(O)CCC4(C)C3CCC12C (stereo not drawn) | 5
66 | CCCC(=NOCC(C)Oc1ccc(Cl)cc1)C1=C(O)CC(C2CCCSC2)CC1=O (stereo not drawn) | 5
67 | COc1nc(C)nc(NC(=O)NS(=O)(=O)c2ccccc2OCCCl)n1 | 5
68 | O=C1c2ccccc2C(=O)N1CCO | 5
69 | CCCC(Cl)CCCC(Cl)CCC(Cl)CCC(Cl)CCC(Cl)CCCC(Cl)CCC (stereo not drawn) | 5

Row | Structure (SMILES) | GHS category
70 | CC(C)C(N)C(=O)OCc1ccccc1 (stereo not drawn) | 5
71 | Nc1nc(-c2ccc3ccccc3c2)cs1 | 5
72 | CC(C)C1CCCCC1 | 5
73 | O=C(O)CCC(CC(=O)O)(C(=O)O)P(=O)(O)O (stereo not drawn) | 5
74 | CC(C)(C)c1ccc(OP(=O)(Oc2ccccc2)Oc2ccccc2)cc1 | 5
75 | Nc1cc(Cl)c(Cl)cc1Cl | 5
76 | O=C1CCCCCCCCCOCCCCCO1 | 5
77 | C[C@H]1C[C@@H]2[C@H]([C@@H](O)C[C@@]3(C)[C@H]2CC[C@]3(O)C(=O)CO)[C@@]2(C)C=CC(=O)C=C12 | 5
78 | COC(=O)c1ccc(OC)cc1 | 5
79 | CNc1ccc(C(=O)c2ccccc2)cc1O | 5
80 | Cc1cc(C(=O)Nc2ccccc2C)n[nH]1 | 5
81 | CC(C)(C)OOC(C)(C)c1ccc(C(C)(C)OOC(C)(C)C)cc1 | 5
82 | CCC(=O)NP(=O)(OC)SC (stereo not drawn) | 4
83 | c1ccc(C2c3ccccc3CCN2c2ccccc2)cc1 (stereo not drawn) | 4
84 | CCCCC/C=C\CCC(CCCCCCCC(=O)O)C(CCCCCCCC)CCCCCCCCC(=O)O (stereo not drawn) | 5
85 | CCCC(=O)CC(=O)OCC | 4
86 | Cn1cc(-c2ccccc2)c(=O)c(-c2cccc(C(F)(F)F)c2)c1 | 5
87 | CC(=O)Nc1ccccc1CCNC(=O)c1ccc2ccccc2c1O | 5
88 | CC(C)(c1ccccc1)c1cc(-n2nc3ccccc3n2)c(O)c(C(C)(C)c2ccccc2)c1 | 5
89 | C#CCN1C(=O)CCc2c(OCCCN3CCC(Cc4ccccc4)CC3)cccc21 | 4
90 | CC(=O)OC1CCC2C3CCC4CC(=O)CCC4(C)C3CCC12C (stereo not drawn) | 5
91 | CC(C)c1cc2c(cc1S(=O)(=O)O)[C@@]1(C)CCC[C@@](C)(C(=O)O)[C@@H]1CC2 | 5
92 | CC(C)=CCC(C#N)(CCN(C)C)Cc1cccc2ccccc12 (stereo not drawn) | 4

Row | Structure (SMILES) | GHS category
93 | N#Cc1ccc(NC(=O)Oc2ccccc2)cc1 | 5
94 | CCCCCCC(O)CCCCCCCCCCC(=O)OCC(COC(=O)CCCCCCCCCCC(O)CCCCCC)OC(=O)CCCCCCCCCCC(O)CCCCCC (stereo not drawn) | 5
95 | ClC1=C(Cl)C2(Cl)C3COCC3C1(Cl)C2(Cl)Cl (stereo not drawn) | 5
96 | CCC(Oc1ccc(F)c(C(F)(F)F)c1)C(O)=NCc1ccccc1 (stereo not drawn) | 5
97 | CCC(c1cccc(O)c1)C(CC)c1cccc(O)c1 (stereo not drawn) | 5
98 | O=S(=O)(O)c1ccc(/N=N/c2cc(S(=O)(=O)O)c3ccccc3c2O)c2ccccc12 | 5
99 | CCCC(=O)c1ccc2c(c1)OC(C)C(=O)N2C (stereo not drawn) | 5
100 | CCn1cc(C(=O)O)c(=O)c2cnc(N3CCNCC3)nc21 | 5
101 | CC1=C(C(=O)O)N2C(=O)[C@@H](NC(=O)C(N)C3=CCC=CC3)[C@H]2SC1 (stereo partly drawn) | 5
102 | CCCC(C)c1ccc(OCC(=O)Cl)c(C(C)CCC)c1 (stereo not drawn) | 5
103 | Cn1nnnc1SCCCS(=O)c1ccccn1 (stereo not drawn) | 4
104 | N#CCC(=O)OCC(COC(=O)CC#N)(COC(=O)CC#N)COC(=O)CC#N | 5
105 | C[Si]1(C)O[Si](C)(C)O[Si](C)(C)O[Si](C)(C)O[Si](C)(C)O1 | 5
106 | CCCCC(CC)C(=O)OOC(C)(C)C (stereo not drawn) | 5
107 | COc1ccc(-c2nc(C)c(C(N)=O)s2)cc1 | 5
108 | CCOC(=O)C(=O)Nc1cc(SCCOCCOC)ncn1 | 4
109 | CC(C)(C)C1=CC(=Cc2ccccc2)C=C(C(C)(C)C)C1=O | 5
110 | CS(=O)(=O)c1ccc(C(=O)C2C(=O)CCCC2=O)c(Cl)c1 | 5
111 | CCOC(=O)N(C)C1CCCN(c2nc(N)c3cc(OC)c(OC)cc3n2)C1 (stereo not drawn) | 4
112 | CC/C=C\CCOC(=O)C(C)C | 5
113 | Cc1cc(C)c(C2=C(OC(=O)CC(C)(C)C)C3(CCCC3)OC2=O)c(C)c1 | 5
